# Measurements published in patent EP0424538A1, “PYRIDINE DERIVATIVES AND THEIR SALTS, AND INSECTICIDAL/ACARICIDAL AGENT CONTAINING THE SAME AS ACTIVE INGREDIENT” (IDEMITSU KOSAN COMPANY LIMITED, priority 1989, dated 1990).
# Test system: larvae (3-periods old) of tobiirounka
# Assay: rice stalk immersion test, life or death of larvae
# Format: in vivo
# Conditions: 168 h; rice stalk immersed 1 minute in 500 ppm chemical solution; checked after 7 days at 25 °C; read-out: % dead larvae
# Method: A stalk of rice cut in a length of 10 cm was immersed for 1 minutes in a chemical solution of one of the compounds obtained in the examples (excepting the compound of Example 4) in a concentration of 500 ppm and, after air-drying, put into a test tube containing water, in which larvae (3-periods old) of tobiirounka were released and kept standing in a thermostatic chamber at 25 °C with a cotton plug.
# After 7 days of the testing, life or death of the above mentioned larvae was checked to find 100% dead larvae with each of the compounds obtained in the examples. Comparative Test Example.
# In place of the compounds used in Test Example, the same test was undertaken by using: . [drawing 136]
row,Structure (SMILES),mortality at 500 µg/mL [%]
1,"Cc1cnccc1C(C)CCC1CCCCC1 (stereo not drawn) [CA 109, 6426j, 1988]",98
2,CCCCc1cnccc1CC,92
3,"CC(C)(C)c1ccncc1C(C)(C)C [CA 100, 155997n, 1984]",92
4,"C=CCC(CC=C)c1ccncc1C [CA 85, 32850y, 1976]",90

# Test system: cabbage maggot (Hylemya brassicae)
# Assay: not given
# Conditions: from Chemical Abstracts and Journal of Economic Entomology, 41, 98, 1948; cited from earlier work
row,Structure (SMILES),activity against cabbage maggot
1,CCCCCc1ccncc1 [4-n-amyl pyridine],no activity was recognized
2,CCCCC(CCCC)c1ccncc1 [4-(5-nonyl) pyridine],no activity was recognized
